Measurements as given in publication PMC11124822, “Discovery and Anticancer Screening of Novel Oxindole-Based Derivative Bearing Pyridyl Group as Potent and Selective Dual FLT3/CDK2 Kinase Inhibitor” (Pharmaceuticals, 2024).

Key:
HS 578T = assay: NCI-60 antiproliferative screen (SRB); type: cell-based, human; details: Homo sapiens; 10 µM single dose, 48 h; HS 578T (Breast); read-out: Growth inhibition (%)
BT-549 = assay: NCI-60 antiproliferative screen (SRB); type: cell-based, human; details: Homo sapiens; 10 µM single dose, 48 h; BT-549 (Breast); read-out: Growth inhibition (%)
SK-OV-3 = assay: NCI-60 antiproliferative screen (SRB); type: cell-based, human; details: Homo sapiens; 10 µM single dose, 48 h; SK-OV-3 (Ovarian); read-out: Growth inhibition (%)
IGROV1 = assay: NCI-60 antiproliferative screen (SRB); type: cell-based, human; details: Homo sapiens, IGROV-1; 10 µM single dose, 48 h; IGROV1 (Ovarian); read-out: Growth inhibition (%)
SN12C = assay: NCI-60 antiproliferative screen (SRB); type: cell-based, human; details: Homo sapiens; 10 µM single dose, 48 h; SN12C (Renal); read-out: Growth inhibition (%)
LOX IMVI = assay: NCI-60 antiproliferative screen (SRB); type: cell-based, human; details: Homo sapiens; 10 µM single dose, 48 h; LOX IMVI (Melanoma); read-out: Growth inhibition (%)
SK-MEL-28 = assay: NCI-60 antiproliferative screen (SRB); type: cell-based, human; details: Homo sapiens; 10 µM single dose, 48 h; SK-MEL-28 (Melanoma); read-out: Growth inhibition (%)
SF-295 = assay: NCI-60 antiproliferative screen (SRB); type: cell-based, human; details: Homo sapiens; 10 µM single dose, 48 h; SF-295 (CNS); read-out: Growth inhibition (%)
ACHN = assay: NCI-60 antiproliferative screen (SRB); type: cell-based, human; details: Homo sapiens; 10 µM single dose, 48 h; ACHN (Renal); read-out: Growth inhibition (%)
[1] = tested on: NCI-60 human cancer cell lines; assay: NCI-60 screen, full panel summary; type: cell-based; details: 10 µM single dose; for Mean Growth Percent: all NCI-60 cell lines; for inhibition at 10 µM: Homo sapiens, read-out: Range of Growth Inhibition on All Cells
Description: In a comprehensive test, compounds were assayed at a single dose concentration (10^−5 M) in the full panel of NCI-60 cancer cell lines.

SF-539 = assay: NCI-60 antiproliferative screen (SRB); type: cell-based, human; details: Homo sapiens; 10 µM single dose, 48 h; SF-539 (CNS); read-out: Growth inhibition (%)
OVCAR-4 = assay: NCI-60 antiproliferative screen (SRB); details: Homo sapiens, OVCAR-4, 48 h, read-out: Growth inhibition (%)
MDA-MB-435 = assay: NCI-60 antiproliferative screen (SRB); type: cell-based, human; details: Homo sapiens; 10 µM single dose, 48 h; MDA-MB-435 (Melanoma); read-out: Growth inhibition (%)
NCI-H23 = assay: NCI-60 antiproliferative screen (SRB); type: cell-based, human; details: Homo sapiens; 10 µM single dose, 48 h; NCI-H23 (NSCLC); read-out: Growth inhibition (%)
DU-145 = assay: NCI-60 antiproliferative screen (SRB); type: cell-based, human; details: Homo sapiens; 10 µM single dose, 48 h; DU-145 (Prostate); read-out: Growth inhibition (%)
NCI/ADR-RES = assay: NCI-60 antiproliferative screen (SRB); type: cell-based, human; details: Homo sapiens; 10 µM single dose, 48 h; NCI/ADR-RES (Ovarian); read-out: Growth inhibition (%)
EKVX = assay: NCI-60 antiproliferative screen (SRB); type: cell-based, human; details: Homo sapiens; 10 µM single dose, 48 h; EKVX (NSCLC); read-out: Growth inhibition (%)
OVCAR-5 = assay: NCI-60 antiproliferative screen (SRB); type: cell-based, human; details: Homo sapiens; 10 µM single dose, 48 h; OVCAR-5 (Ovarian); read-out: Growth inhibition (%)
M14 = assay: NCI-60 antiproliferative screen (SRB); type: cell-based, human; details: Homo sapiens; 10 µM single dose, 48 h; M14 (Melanoma); read-out: Growth inhibition (%)
UACC-257 = assay: NCI-60 antiproliferative screen (SRB); type: cell-based, human; details: Homo sapiens; 10 µM single dose, 48 h; UACC-257 (Melanoma); read-out: Growth inhibition (%)
NCI-H226 = assay: NCI-60 antiproliferative screen (SRB); type: cell-based, human; details: Homo sapiens; 10 µM single dose, 48 h; NCI-H226 (NSCLC); read-out: Growth inhibition (%)
OVCAR-8 = assay: NCI-60 antiproliferative screen (SRB); type: cell-based, human; details: Homo sapiens; 10 µM single dose, 48 h; OVCAR-8 (Ovarian); read-out: Growth inhibition (%)
UACC-62 = assay: NCI-60 antiproliferative screen (SRB); type: cell-based, human; details: Homo sapiens; 10 µM single dose, 48 h; UACC-62 (Melanoma); read-out: Growth inhibition (%)
786-0 = assay: NCI-60 antiproliferative screen (SRB); type: cell-based, human; details: Homo sapiens; 10 µM single dose, 48 h; 786-0 (Renal); read-out: Growth inhibition (%)
NCI-H460 = assay: NCI-60 antiproliferative screen (SRB); type: cell-based, human; details: Homo sapiens; 10 µM single dose, 48 h; NCI-H460 (NSCLC); read-out: Growth inhibition (%)
NCI-H522 = assay: NCI-60 antiproliferative screen (SRB); type: cell-based, human; details: Homo sapiens; 10 µM single dose, 48 h; NCI-H522 (NSCLC); read-out: Growth inhibition (%)
HCT-15 = assay: NCI-60 antiproliferative screen (SRB); type: cell-based, human; details: Homo sapiens; 10 µM single dose, 48 h; HCT-15 (Colon); read-out: Growth inhibition (%)
CCRF-CEM = assay: NCI-60 antiproliferative screen (SRB); type: cell-based, human; details: Homo sapiens; 10 µM single dose, 48 h; CCRF-CEM (Leukemia); read-out: Growth inhibition (%)
CAKI-1 = assay: NCI-60 antiproliferative screen (SRB); type: cell-based, human; details: Homo sapiens; 10 µM single dose, 48 h; CAKI-1 (Renal); read-out: Growth inhibition (%)

SMILES	inhibition at 10 µM (HS 578T)	inhibition at 10 µM (BT-549)	inhibition at 10 µM (SK-OV-3)	inhibition at 10 µM (IGROV1)	inhibition at 10 µM (SN12C)	inhibition at 10 µM (LOX IMVI)	inhibition at 10 µM (SK-MEL-28)	inhibition at 10 µM (SF-295)	inhibition at 10 µM (ACHN)	Positive Cytostatic Effect (cell lines with percent growth from 0 to 50 / total number of cell lines) [1]	Positive Cytotoxic Effect (cell lines with percent growth of <0 / total number of cell lines) [1]	Sensitive/Total Cell Lines [1]	antiproliferative activity (in words) [1]	Mean Growth Percent [1]	inhibition at 10 µM [1]	inhibition at 10 µM (SF-539)	inhibition at 10 µM (OVCAR-4)	inhibition at 10 µM (MDA-MB-435)	inhibition at 10 µM (NCI-H23)	inhibition at 10 µM (DU-145)	other results
O=C1Nc2ccccc2C1=Cc1ccc(OCc2ccccc2)cc1 (mixture of isomers) [Compound 5a, (E/Z)-3-[4-(Benzyloxy)benzylidene] indolin-2-one]	-6.13%	-5.74%	-5.78%	-9.53%	6.16%	-7.76%	-7.21%	-6.78%	-4.27%	0/59	0/59	0/59	weak antiproliferative activity	−1.00	-16.2 to 15.8%	-3.4%	-7.99%	-2.33%	-2.42%	-4.38%	inhibition at 10 µM (NCI/ADR-RES): -0.55%; inhibition at 10 µM (EKVX): 0.69%; inhibition at 10 µM (OVCAR-5): -2.24%; inhibition at 10 µM (M14): 5.67%; inhibition at 10 µM (UACC-257): -9.45%; inhibition at 10 µM (NCI-H226): 4.45%; inhibition at 10 µM (OVCAR-8): 2.34%; inhibition at 10 µM (UACC-62): 6.11%; inhibition at 10 µM (786-0): 3.67%; inhibition at 10 µM (NCI-H460): -8.64%; inhibition at 10 µM (NCI-H522): 2.18%; inhibition at 10 µM (HCT-15): 0.04%; inhibition at 10 µM (CCRF-CEM): 0.52%; inhibition at 10 µM (CAKI-1): 2%
O=C1Nc2ccc(F)cc2C1=Cc1ccc(OCc2ccccc2)cc1 (mixture of isomers) [Compound 5b, (E/Z)-3-[4-(Benzyloxy)benzylidene]-5-fluoroindolin-2-one]	-0.32%	-6.03%	0.16%	2.92%	0.27%	-6.24%	2.92%	1.11%	-7.3%	0/57	0/57	0/57	weak antiproliferative activity	1.62	-10.8 to 9.53%	4.67%	0.82%	5.59%	1.73%	0.4%	inhibition at 10 µM (NCI/ADR-RES): 0.01%; inhibition at 10 µM (EKVX): 0.65%; inhibition at 10 µM (OVCAR-5): -0.99%; inhibition at 10 µM (M14): 3.39%; inhibition at 10 µM (UACC-257): 2.53%; inhibition at 10 µM (NCI-H226): 9.53%; inhibition at 10 µM (OVCAR-8): -0.84%; inhibition at 10 µM (UACC-62): 4.38%; inhibition at 10 µM (786-0): 0.43%; inhibition at 10 µM (NCI-H460): -0.94%; inhibition at 10 µM (NCI-H522): 5.91%; inhibition at 10 µM (HCT-15): 3.51%; inhibition at 10 µM (CCRF-CEM): -10.8%; inhibition at 10 µM (CAKI-1): 8.23%
O=C1Nc2ccc(Cl)cc2C1=Cc1ccc(OCc2ccccc2)cc1 (mixture of isomers) [Compound 5c, (E/Z)-3-[4-(Benzyloxy)benzylidene]-5-chloroindolin-2-one]	-2.25%	-2.68%	-1.7%	-5.14%	0.7%	0.14%	-8.75%	-11.1%	-1.45%	0/59	0/59	0/59	weak antiproliferative activity	0.10	-13 to 23.9%	4.12%	-7.18%	-3.79%	-1.96%	-5.61%	inhibition at 10 µM (NCI/ADR-RES): 1.88%; inhibition at 10 µM (EKVX): 0.85%; inhibition at 10 µM (OVCAR-5): -2.92%; inhibition at 10 µM (M14): 7.34%; inhibition at 10 µM (UACC-257): -6.58%; inhibition at 10 µM (NCI-H226): 11.1%; inhibition at 10 µM (OVCAR-8): -0.47%; inhibition at 10 µM (UACC-62): 5.69%; inhibition at 10 µM (786-0): -2.86%; inhibition at 10 µM (NCI-H460): -3.66%; inhibition at 10 µM (NCI-H522): 2.1%; inhibition at 10 µM (HCT-15): -4.25%; inhibition at 10 µM (CCRF-CEM): 0.21%; inhibition at 10 µM (CAKI-1): 13.4%
